Laboratory results reported in US20140309275A1, “Sphingosine Analogs, Compositions, and Methods Related Thereto” (Emory University, priority 2011, published 2014).
Where two headings read alike, the source gives them in different places. Each block holds one molecule with its values, some of them ahead of it.

How the values were obtained:
Format in all cases: cell-based
[1] = test system: P. falciparum chloroquine susceptible (CQ-S) D6 strain; test: [3H]-labeled hypoxanthine uptake assay, P. falciparum D6; conditions: for IC50: Plasmodium falciparum; for IC50 D6: Table 1
Source text: (§1) The [^3H]-labeled hypoxanthine uptake method was utilized to assay the effectiveness of our sphingoid base analogs in vitro for their ability to inhibit the growth and replication of malaria parasites in RBCs. […] The simian malaria parasite P. knowlesi has also been recognized as a human pathogen of public health concern in South East Asia, and it can be cultured effectively in vitro. This species was therefore included to probe the potential of multi-species efficacy within this compound class.
(§2) Cryopreserved iRBCs were provided by Dr. John W. Barnwell from the Centers for Disease Control and Prevention and maintained in in vitro culture as described in Trager & Jensen, Science 1976, 193 (4254), 673-5.
(§3) Compounds in Table 1 were dissolved in 70% 200-proof pharmaceutical grade ethanol, and a working solution of 0.2 mg/mL was prepared using hypoxanthine- and gentamicin-free incomplete RPMI 1640 (Gibco). Compounds in Table 2 were dissolved in 200 proof pharmaceutical grade ethanol at a concentration of 50 μM and then conjugated to BSA (Sigma) as described.^5 A working solution of 0.2 mg/mL was prepared using hypoxanthine- and gentamicin-free incomplete RPMI 1640 (Gibco). Two compounds were tested per plate in triplicate starting at 0.2 mg/mL and diluted two-fold down to 0.019 μg/mL using hypoxanthine- and gentamicin-free RPMI.
(§4) Parasite inoculum was prepared by mixing parasitized blood, uninfected 0+RBCs (for P. falciparum strains) or rhesus RBCs (for P. knowlesi) and culture medium (deficient in hypoxanthine and gentamicin) to a final concentration of 1% parasitemia and 1% haematocrit. A negative control was prepared by diluting uninfected erythrocytes to 1% haematocrit in culture medium. [^3H]-labeled hypoxanthine was added at 24 h (for P. falciparum strains) or 12 h (P. knowlesi) and the culture was collected 48 h or 12 h later for P. falciparum or P. knowlesi, respectively. [^3H] uptake was measured by using a scintillation spectrophotometer (Wallac Oy 1450 MicroBeta reader).
(§5) Triplicate wells were used to calculate the IC50 for each compound using the software XLFit v5.2 using the sigmoidal model 601. Average and standard deviations were calculated using Microsoft Excel.

[2] = test system: P. falciparum chloroquine resistant (CQ-R) W2 strain; test: [3H]-labeled hypoxanthine uptake assay, P. falciparum W2; conditions: for IC50: Plasmodium falciparum; for IC50 W2: Table 1
Source text: as §1, §2, §3, §4, §5

[3] = test system: LNCaP prostate cancer cells; test: WST-1 cytotoxicity assay, LNCaP; conditions: Homo sapiens, 24 h treatment
Protocol: (§6) Prostate cancer cells were treated with enigmol or analogue for 24 h, and cytotoxicity was assessed by WST-1 assay. cLogPs were calculated with QuikProp on Maestro.

[4] = test system: PC-3 prostate cancer cells; test: WST-1 cytotoxicity assay, PC-3; conditions: 24 h treatment
Protocol: as §6

[5] = test system: P. knowlesi H strain; test: [3H]-labeled hypoxanthine uptake assay, P. knowlesi; conditions: Table 1, compounds dissolved in 70% ethanol, not BSA-conjugated; for IC50: Plasmodium knowlesi
Source text: as §1, with “class. The data were generated with the known antimalarial drugs chloroquine and mefloquine as controls.” for “class.”
The H strain of P. knowlesi has been adapted to in vitro culture using Macaca mulatta (rhesus monkey) RBCs essentially as described in Kocken et al., Infect Immun 2002, 70 (2), 655-60 (the media was supplemented with 10% human AB serum).
Chloroquine (Sigma) and mefloquine (Sigma) were used as controls. Compounds in Table 1 were dissolved in 70% 200-proof pharmaceutical grade ethanol, and a working solution of 0.2 mg/mL was prepared using hypoxanthine- and gentamicin-free incomplete RPMI 1640 (Gibco). Compounds in Table 2 were dissolved in 200 proof pharmaceutical grade ethanol at a concentration of 50 μM and then conjugated to BSA (Sigma) as described.^5 A working solution of 0.2 mg/mL was prepared using hypoxanthine- and gentamicin-free incomplete RPMI 1640 (Gibco). Two compounds were tested per plate in triplicate starting at 0.2 mg/mL and diluted two-fold down to 0.019 μg/mL using hypoxanthine- and gentamicin-free RPMI.
as §4, §5

[6] = D6, Table 2, compounds conjugated to BSA, read-out: IC50 D6
[7] = W2, Table 2, compounds conjugated to BSA, read-out: IC50 W2
[8] = D6, Table 1, compounds dissolved in 70% ethanol, not BSA-conjugated, read-out: IC50 D6
[9] = W2, Table 1, compounds dissolved in 70% ethanol, not BSA-conjugated, read-out: IC50 W2
[10] = compounds dissolved in 70% ethanol, not BSA-conjugated

SMILES: CCN(CC)CCCC(C)Nc1ccnc2cc(Cl)ccc12 (centres unmarked) [Chloroquine, reference compound]
- IC50 ([1]; D6, read-out: IC50 D6, Table 1, compounds dissolved in 70% ethanol, not BSA-conjugated): 0.02 µM
- IC50 ([1]; D6, read-out: IC50 D6, Table 2, compounds conjugated to BSA): 0.011 µM
- IC50 ([2]; W2, read-out: IC50 W2, Table 1, compounds dissolved in 70% ethanol, not BSA-conjugated): 0.18 µM
- IC50 ([2]; W2, read-out: IC50 W2, Table 2, compounds conjugated to BSA): 0.093 µM

SMILES: CCCCCCCCCCCCCCCC(=O)N[C@@H](C)[C@@H](O)C[C@@H](O)CCCCCCCCCCCCC [ESPD-0514, N-((2S,3S,5S)-3,5-dihydroxyoctadecan-2-yl)palmitamide]
- IC50 [5]: > 37 µM
- IC50 P. knowlesi [5]: no activity
- IC50 [1, 8]: > 37 µM
- IC50 D6 [1, 10]: no activity
- IC50 [2, 9]: > 37 µM
- IC50 W2 [2, 10]: no activity

SMILES: C[C@H](N)[C@@H](O)C[C@@H](O)CCCCCCCCCCCCC(F)(F)F [ESPD-01183]
- IC50 [3]: 13 µM
- IC50 [4]: 13 µM

SMILES: C[C@H](N)[C@@H](O)C[C@@H](O)CCCCCC#CCCCCCC(F)(F)F [ESPD-01184]
- IC50 [3]: > 100 µM
- IC50 [4]: 92 µM

SMILES: CCCCCCC#CCCCCC[C@H](O)C[C@H](O)[C@H](C)N [ESPD-01185]
- IC50 [3]: > 100 µM
- IC50 [4]: > 100 µM

SMILES: C[C@H](N)[C@@H](O)C[C@@H](O)CCCCC/C=C/CCCCCC(F)(F)F [ESPD-01186]
- IC50 [3]: 14 µM
- IC50 [4]: 27 µM

SMILES: CCCCCC/C=C/CCCCC[C@H](O)C[C@H](O)[C@H](C)N [ESPD-01187]
- IC50 [3]: 19 µM
- IC50 [4]: 33 µM

SMILES: CCCCCC/C=C\CCCCC[C@H](O)C[C@H](O)[C@H](C)N [ESPD-01192]
- IC50 [3]: 19 µM
- IC50 [4]: 25 µM

SMILES: CCCCCCCCCCCCC(F)(F)[C@H](O)C[C@H](O)[C@H](C)N [ESPD-01406, (2S,3S,5R)-2-amino-6,6-difluorooctadecane-3,5-diol]
- IC50 [3]: 10 µM
- IC50 [4]: 9 µM

SMILES: CCCCCCCCCCCCC(F)(F)[C@@H](O)C[C@H](O)[C@H](C)N [ESPD-01407, (2S,3S,5S)-2-amino-6,6-difluorooctadecane-3,5-diol]
- IC50 [3]: 10 µM
- IC50 [4]: 9 µM

SMILES: CCCCCCCCCCCCC(F)(F)[C@H](O)C[C@@H](O)[C@H](C)N [ESPD-01408, (2S,3R,5R)-2-amino-6,6-difluorooctadecane-3,5-diol]
- IC50 [3]: 10 µM
- IC50 [4]: 9 µM

SMILES: CCCCCCCCCCCCC(F)(F)[C@@H](O)C[C@@H](O)[C@H](C)N [ESPD-01409, (2S,3R,5S)-2-amino-6,6-difluorooctadecane-3,5-diol]
- IC50 [3]: 10 µM
- IC50 [4]: 10 µM

SMILES: OC(c1cc(C(F)(F)F)nc2c(C(F)(F)F)cccc12)C1CCCCN1 (centres unmarked) [Mefloquine, reference compound]
- IC50 [5]: 0.04 µM
- IC50 [2, 7]: 0.004 µM

Further lines, with some results ahead:

- IC50 [1, 6]: 5.2 ± 3 µM
- IC50 [2, 7]: 4.67 ± 1 µM
SMILES: CCCCCCCCCCCCC[C@H](O)C[C@H](O)C(C)(C)N (racemic) [ESPD-0560, (+/−)-syn-2 amino-2-methyloctadecane-3,5-diol]
- IC50 [3]: 23 µM
- IC50 [4]: 10 µM

- IC50 [1, 6]: 4.1 ± 0.7 µM
- IC50 [2, 7]: 7.43 µM
SMILES: CCCCCCCCCCCCC[C@@H](O)C[C@H](O)C(C)(C)N (racemic) [ESPD-0561, (+/−)-anti-2 amino-2-methyloctadecane-3,5-diol]
- IC50 [3]: 25 µM
- IC50 [4]: 10 µM

- IC50 [1, 6]: 11.2 µM
- IC50 [2, 7]: 7.2 ± 4 µM
SMILES: CCCCCCCCCCCCC[C@@H](O)C[C@H](O)C1(N)CC1 (racemic) [ESPD-0859, (+/−)-anti-1-(1-aminocyclopropyl)hexadecane-1,3-diol]

- IC50 [1, 6]: 5.5 µM
- IC50 [2, 7]: 9.9 ± 7 µM
SMILES: CCCCCCCCCCCCC[C@H](O)C[C@H](O)C1(N)CC1 (racemic) [ESPD-0860, (+/−)-syn1-(1-aminocyclopropyl)hexadecane-1,3-diol]

- IC50 [1, 6]: 0.7 ± 0.5 µM
- IC50 [2, 7]: 0.25 µM
- IC50 ([2]; W2, text b107, BSA-conjugated, strain not stated (matches W2 of Table 2), read-out: IC50): 0.25 µM
SMILES: CCCCCCCCCCCCC[C@H](O)C[C@H](O)C(C)(C)NC (racemic) [ESPD-1158, (+/−)-syn-2-methyl-2-(methylamino)octadecane-3,5-diol]

- IC50 [5]: 17.6 ± 1.8 µM
- IC50 [1, 8]: 12.7 ± 1.2 µM
- IC50 [2, 9]: 8.17 ± 1.8 µM
SMILES: CCCCCCCCCCCCC[C@@H](O)C[C@H](O)[C@H](C)N [ESPD-0503]

- IC50 [5]: 20.3 ± 2 µM
- IC50 [1, 8]: 17.8 ± 1.1 µM
- IC50 [2, 9]: 9.22 ± 1.6 µM
SMILES: CCCCCCCCCCCCC[C@H](O)C[C@@H](O)[C@H](C)N [ESPD-0505, (2S,3R,5S)-2-Aminooctadecane-3,5-diol]

- IC50 [5]: > 58 µM
- IC50 P. knowlesi [5]: no activity
- IC50 [1, 8]: 11.1 ± 0.5 µM
- IC50 D6 [1, 10]: no activity
- IC50 [2, 9]: 13.1 ± 3.7 µM
- IC50 W2 [2, 10]: no activity
SMILES: CCCCCCCCCCCCC[C@H](O)C[C@H](O)[C@H](C)NC(C)=O [ESPD-0506, N-((2S,3S,5S)-3,5-dihydroxyoctadecan-2-yl)acetamide]

- IC50 [5]: 6.83 ± 0.09 µM
- IC50 [1, 8]: 7 ± 0.6 µM
- IC50 [2, 9]: 4.42 ± 1.1 µM
SMILES: CCCCCCCCCCCCC[C@H](O)C[C@H](O)[C@H](C)N(C)C [ESPD-0513, (2S,3S,5S)-2-(dimethylamino)octadecane-3,5-diol]

- IC50 [5]: 6.25 ± 0.27 µM
- IC50 [1, 8]: 9.7 ± 1 µM
- IC50 [2, 9]: 4.39 ± 1.5 µM
SMILES: CCCCCCCCCCCCC[C@H](O)C[C@H](O)[C@@H]1CCCN1 [ESPD-0522, (1S,3S)-1-((S)-pyrrolidin-2-yl)hexadecane-1,3-diol]

- IC50 [1, 8]: 14.6 ± 0.64 µM
- IC50 [2, 9]: 8.09 ± 0.24 µM
SMILES: CCCCCCCCCCCCC[C@H](O)C[C@@H](O)[C@H](C)NC [ESPD-0559, (2S,3R,5S)-2-(methylamino)octadecane-3,5-diol]

- IC50 [1, 6]: 7.44 µM
- IC50 [2, 7]: 10 ± 2.7 µM
SMILES: CCCCCCCCCCCCCC(O)C/C(=N\O)C(C)(C)N (centres unmarked) [ESPD-0858, (+/−,E)-2-amino-5-hydroxy-2-methyloctadecan-3-one oxime]
- IC50 [3]: 24 µM
- IC50 [4]: 24 µM
